Structures can show the parent of a compound that is named as a salt. Where two headings read alike, the source gives them in different places. Bounds are passed on as bounds.

The nature of series [1]: Tolerability in mice. Details: species or system mice (male albino Swiss). As to conditions: mouse, in vivo, read-out: TOLERABILITY dose. Here is the method: Male albino Swiss mice weighing 22-24 g were used in this test.
One group of animals (4/dose) which had been kept fasting for 18 hours was orally administered the compounds dissolved in twice distilled water. The same compounds dissolved in saline at pH=7 were intravenously injected in a further group of animals which had free access to food and drinking water. All of the animals were monitored for 7 days.

Series [2] in a line: LD50 in mice (Weil's method). To be noted: mouse, in vivo; intravenous route, male Albino Swiss mice. How it is done:
LD50 was assessed according to the Carrol S. WEIL's method (Biometrics, pages […] (1952)) on male Albino Swiss mice weighing 22-24 g. The compounds dissolved in […] saline solution were administered via the intravenous route.

Series [3] relates to Normotensive cats. Put plainly: Measure of arterial pressure in cats (hypotensive effect in normotensive cats). For EFFECT DURATION (hypotension in normotensive cats): key: S: short; A: average; L: long. It counts as in vivo. As to conditions: via crural vein.
Experimental: (a) Measure of arterial pressure in cats.
Normotensive cats of either sex weighing 2.5-3.5 kgs were used in this test.
The animals fasted for 18 hours were anesthetized with Na Nembutal (30 mg/kg) and ethyl urethane (300 mg/kg i.p.). The crural vein and artery of the animals were cannulated, the former for administering the compounds, the latter for monitoring the arterial pressure. The arterial pressure was measured via a mercury gauge connected to a rotating kymograph.
The compounds were dissolved in sterile 0.9% saline and administered at physiological pH in a 0.5 ml/kg volume.
For series [4], the system named is SHR hypertensive rats. Put plainly: Non-invasive measure of arterial pressure in genetically hypertensive rats (SHR). It counts as in vivo, rats (male SHR). How it is done:
(b) Non-invasive measure of arterial pressure in genetically hypertensive rats.
Male SHR rats (Charles River) of 3-4 months were used in this test. The compounds listed were dissolved in either 0.9% saline or twice distilled water and administered via the oral route or i.p. (50-100 mg/5 ml/kg).
The animals, housed in individual cages at 23° C. and 60% humidity, had free access to food and drinking water. A BP recorder (Letica) equipped with a two-way polygraph was used. The systolic and diastolic pressure and the heart rate were recorded. The animals, a few days before the test began, were accustomed to be constrained on a heating plate (at 38° C.±1° C.) for 20 minutes).
During the pre-tests, the assessments were made at time 0 (8^30 -9^30 a.m.) and after 1, 2 and 4 hours.
Every assessment was the average of 3 measures and the maximum residence time of the animal in the thermostatized chamber (for the whole test duration) was 40 minutes.
Student's "t" test was used for assessing the difference with respect to the control group and its own 0 time.

[5] abbreviates: iv, e.p. (head), intravenously injected in saline pH 7, monitored 7 days.
The mark [6] stands for this setting: os (oral), fasted mice, monitored 7 days.

For orientation: LD50 means the dose at which mortality reaches 50%. In the case of `COc1cc2c(cc1OC)CC(NC(=O)C(N)Cc1c[nH]c3ccccc13)CC2` (stereo not shown) [ST 580, 2-N-tryptophylamino-6,7-dimethoxy tetraline hydrochloride], the MTD at 168 h in series [1] (setting [5]) and in series [1] (setting [6]) was more than 50 mg/kg in each case. The same molecule registered a median lethal dose (LD50) in series [2] of 66.7 mg/kg. Also, the “HYPOTENSIVE EFFECT IN NORMOTENSIVE CATS, hypotension” value in series [3] (dose 1-4 mg/kg) was found to be 0 mm Hg.

`COc1cc2c(cc1OC)CC(NC(=O)C(N)CCSC)CC2` (stereo not shown) [ST 581, 2-N-methionylamino-6,7-dimethoxy tetraline hydrochloride]: the MTD at 168 h in series [1] (setting [5]) and in series [1] (setting [6]) was more than 50 mg/kg throughout. Moreover, the LD50 in series [2] came out at 74 mg/kg. For the same molecule, the “HYPOTENSIVE EFFECT IN NORMOTENSIVE CATS, hypotension” value in series [3] (dose 1-4 mg/kg) is 0 mm Hg.

In the case of `COc1cc2c(cc1OC)CC(NC(=O)CN)CC2` (stereo not shown) [ST 582, 2-N-glycylamino-6,7-dimethoxy tetraline hydrochloride], the MTD at 168 h in series [1] (setting [5]) and in series [1] (setting [6]) was more than 50 mg/kg throughout. In series [2], this molecule came in with an LD50 of 72.3 mg/kg. Moreover, in series [3] (dose 10 mg/kg), the “EFFECT DURATION (hypotension in normotensive cats)” value (from here on “EFFECT DURATION”) is “S”. In addition, the “ANTIHYPERTENSIVE EFFECT IN SHR HYPERTENSIVE RATS” value in series [4] (50 mg/kg i.p., 1st h) is recorded as -37 mm Hg; in series [4] (50 mg/kg i.p., 2nd h), -27 mm Hg; in series [4] (50 mg/kg i.p., 4th h) it was 0 mm Hg.

For `COc1cc2c(cc1OC)CC(NC(=O)[C@H](C)NC(=O)[C@@H](N)CC(C)C)CC2.Cl` (stereo partly shown) [ST 584, 2-(N-leucylalanyl)amino-6,7-dimethoxy tetraline hydrochloride], the MTD at 168 h in series [1] (setting [5]) and in series [1] (setting [6]) was more than 50 mg/kg each time. In addition, the LD50 in series [2] was found to be 167 mg/kg. The “ANTIHYPERTENSIVE EFFECT IN SHR HYPERTENSIVE RATS” value in series [4] (dose "10C" [sic] mg/kg os, 1st h) was -12 mm Hg; in series [4] (dose "10C" [sic] mg/kg os, 2nd h) it was 0 mm Hg; in series [4] (dose "10C" [sic] mg/kg os, 4th h), 0 mm Hg.

For the molecule `COc1cc2c(cc1OC)CC(NC(=O)[C@H](C)NC(=O)[C@@H](N)Cc1c[nH]c3ccccc13)CC2` (stereo partly shown) [ST 585, 2-(N-tryptophylalanyl)amino-6,7-dimethoxy tetraline hydrochloride], the MTD at 168 h in series [1] (setting [5]) and in series [1] (setting [6]) was more than 50 mg/kg throughout. Also, the LD50 in series [2] is 115 mg/kg. Further, the “HYPOTENSIVE EFFECT IN NORMOTENSIVE CATS, hypotension” value in series [3] (dose 4 mg/kg) came out at 0 mm Hg. Further, the “EFFECT DURATION” value in series [3] (dose 10 mg/kg) is reported as “S”.

Turning to `COc1cc2c(cc1OC)CC(NC(=O)[C@H](C)NC(=O)[C@@H](N)CCSC)CC2.Cl` (stereo partly shown) [ST 586, 2-(N-methionylalanyl)amino-6,7-dimethoxy tetraline hydrochloride], the MTD at 168 h in series [1] (setting [5]) and in series [1] (setting [6]) was more than 50 mg/kg each time. In addition, in series [2], the median lethal dose (LD50) was determined as 229 mg/kg. Besides, in series [3] (dose 2 mg/kg), the “HYPOTENSIVE EFFECT IN NORMOTENSIVE CATS, hypotension” value worked out at 0 mm Hg. Besides, the “EFFECT DURATION” value in series [3] (dose 4 mg/kg) was “S”.

With `COc1cc2c(cc1OC)CC(NC(=O)C(N)Cc1ccc(O)cc1)CC2` (stereo not shown) [ST 589, 2-N-tyrosyl-6,7-dimethoxy tetraline hydrochloride], the MTD at 168 h in series [1] (setting [5]) and in series [1] (setting [6]) was more than 50 mg/kg in each case. The molecule further registered an LD50 in series [2] of 218 mg/kg. Moreover, the “EFFECT DURATION” value in series [3] (dose 1 mg/kg) and in series [3] (dose 2 mg/kg) was “S” throughout. Also, the “ANTIHYPERTENSIVE EFFECT IN SHR HYPERTENSIVE RATS” value is recorded as -26 mm Hg in series [4] (100 mg/kg os, 1st h); -20 mm Hg in series [4] (100 mg/kg os, 2nd h); 0 mm Hg in series [4] (100 mg/kg os, 4th h).

For the molecule `CCN(C(=O)[C@H](C)NC(=O)[C@@H](N)Cc1c[nH]c2ccccc12)C1CCc2cc(OC)c(OC)cc2C1` (stereo partly shown) [ST 604, 2-(N-ethyl,N-tryptophylalanyl)amino-6,7-dimethoxy tetraline hydrochloride], the MTD at 168 h in series [1] (setting [5]) and in series [1] (setting [6]) was more than 50 mg/kg throughout. The 50% lethal dose (LD50) in series [2] is 85 mg/kg. For the same molecule, in series [3] (dose 1-4 mg/kg), the “HYPOTENSIVE EFFECT IN NORMOTENSIVE CATS, hypotension” value is reported as 0 mm Hg.

As for `COc1cc2c(cc1OC)CC(NC(=O)[C@H](C)NC(=O)[C@@H](N)Cc1ccc(O)cc1)CC2.Cl` (stereo partly shown) [ST 605, 2-(N-tyrosylalanyl)amino-6,7-dimethoxy tetraline hydrochloride], the MTD at 168 h in series [1] (setting [5]) and in series [1] (setting [6]) was more than 50 mg/kg each time. This molecule showed an LD50 in series [2] of 72.3 mg/kg. Besides, in series [3] (dose 1 mg/kg), the “HYPOTENSIVE EFFECT IN NORMOTENSIVE CATS, hypotension” value is 0 mm Hg. For the same molecule, in series [3] (dose 2 mg/kg), the “EFFECT DURATION” value is “S”. Also, the “ANTIHYPERTENSIVE EFFECT IN SHR HYPERTENSIVE RATS” value in series [4] (100 mg/kg e.p., 1st h) is -40 mm Hg; in series [4] (100 mg/kg e.p., 2nd h) it was -38 mm Hg; in series [4] (100 mg/kg e.p., 4th h), -29 mm Hg; in series [4] (100 mg/kg os, single administration (*), 2nd h), -28 mm Hg; in series [4] (100 mg/kg os, single administration (*), 4th h), -31 mm Hg; in series [4] (repeated administration (5 days) (**), dose column "--" below 100 os, 2nd h) it was -35 mm Hg. Moreover, in series [4] (repeated administration (5 days) (**), dose column "--" below 100 os, 4th h), the “ANTIHYPERTENSIVE EFFECT IN SHR HYPERTENSIVE RATS” value is -17 mm Hg.

For the molecule `CCN(C(=O)[C@H](C)NC(=O)[C@@H](N)CCSC)C1CCc2cc(OC)c(OC)cc2C1` (stereo partly shown) [ST 606, 2-(N-ethyl,N-methionylalanyl)amino-6,7-dimethoxy tetraline hydrochloride], the MTD at 168 h in series [1] (setting [5]) and in series [1] (setting [6]) was more than 50 mg/kg in each case. Further, the LD50 in series [2] was 150 mg/kg. Also, the “EFFECT DURATION” value in series [3] (dose 1 mg/kg), in series [3] (dose 2 mg/kg) and in series [3] (dose 4 mg/kg) was “S” throughout.

(Values after US5053424A, “2-(N-acyl)amino-6,7-dimethoxy tetralines, and pharmaceutical compositions having antihypertensive activity containing same” (Sigma-Tau Industrie Farmaceutiche Riunite S.p.A., priority 1989, dated 1991).)
